Read-outs that look alike come from different tables or passages of the source.
Assays:
[1] = molecular target: T1, LeuRSAt (Agrobacterium tumefaciens, UniProt Q8UBV2); test: Isothermal titration calorimetry, LeuRSAt; set-up: species or system A. tumefaciens; details: ITC, Leu-AMS binding to LeuRSAt
Description: (§1) Typically, about 4–8 μM active protein solution and a 10-fold higher ligand concentration were prepared in buffer containing 50 mM HEPES (pH 7.4), 20 mM KCl 10 mM MgCl2 and 1 mM β-ME. The titrations were carried out in triplicate at 28 °C. The data was then analyzed using Origin software (version 7) and fitted to a one-site or a two-site binding model to obtain the binding affinity (Kd), stoichiometry (N) and enthalpy (ΔH) for each complex.

[2] = molecular target: T2, wt AgnB2 (LeuRS) (Agrobacterium radiobacter, UniProt B9JQP8); test: Isothermal titration calorimetry, wt AgnB2; format: binding, Agrobacterium radiobacter K84; details: ITC; for Kd: 28 °C
Description: as §1

[3] = molecular target: T2, wt AgnB2 (LeuRS); test: Aminoacylation assay, wt AgnB2; details: for Ki: 2 nM enzyme
[4] = molecular target: T1, LeuRSAt; test: ATP/PPi exchange assay (amino acid activation), LeuRSAt; format: biochemical, A. tumefaciens; details: 28 °C, pH 7.4
Description: (§2) The formation of Leu-AMP by ATP/PPi exchange assays was performed as described earlier. Briefly, the reaction buffer contained 50 mM HEPES buffer (pH 7.4), 20 mM KCl, 10 mM MgCl2, 500 μM L-leucine, 4 mM ATP, 1 mM tetrasodium pyrophosphate (NaPPi), 10 μCi/mmol [^32P] NaPPi and 1 μM bovine serum albumin (BSA). The reaction was initiated by addition of 1–4 nM of active enzyme and incubated at 28 °C. Aliquots (5 μl each) were collected over 30 min and quenched in a 10% charcoal slurry containing 0.5% HCl and 50 μl of 200 mM sodium pyrophosphate in 1 M HCl. Liquid scintillation counting was then used to measure the amount of [^32P]-PPi incorporation into ATP that was adsorbed onto the charcoal.

[5] = molecular target: T2, wt AgnB2 (LeuRS); test: ATP/PPi exchange assay (amino acid activation), AgnB2; details: 28 °C, pH 7.4
[6] = test system: LeuRSAt (leucyl-tRNA synthetase); details: aminoacylation, cited from earlier work; for Km / kcat: substrate, 28 °C, pH 7.4
[7] = molecular target: T3, AgnB2 (TM84-resistant leucyl-tRNA synthetase) (Agrobacterium radiobacter K84 (plasmid pAgK84)) (UniProt B9JQP8); test: ITC
T3 sequence: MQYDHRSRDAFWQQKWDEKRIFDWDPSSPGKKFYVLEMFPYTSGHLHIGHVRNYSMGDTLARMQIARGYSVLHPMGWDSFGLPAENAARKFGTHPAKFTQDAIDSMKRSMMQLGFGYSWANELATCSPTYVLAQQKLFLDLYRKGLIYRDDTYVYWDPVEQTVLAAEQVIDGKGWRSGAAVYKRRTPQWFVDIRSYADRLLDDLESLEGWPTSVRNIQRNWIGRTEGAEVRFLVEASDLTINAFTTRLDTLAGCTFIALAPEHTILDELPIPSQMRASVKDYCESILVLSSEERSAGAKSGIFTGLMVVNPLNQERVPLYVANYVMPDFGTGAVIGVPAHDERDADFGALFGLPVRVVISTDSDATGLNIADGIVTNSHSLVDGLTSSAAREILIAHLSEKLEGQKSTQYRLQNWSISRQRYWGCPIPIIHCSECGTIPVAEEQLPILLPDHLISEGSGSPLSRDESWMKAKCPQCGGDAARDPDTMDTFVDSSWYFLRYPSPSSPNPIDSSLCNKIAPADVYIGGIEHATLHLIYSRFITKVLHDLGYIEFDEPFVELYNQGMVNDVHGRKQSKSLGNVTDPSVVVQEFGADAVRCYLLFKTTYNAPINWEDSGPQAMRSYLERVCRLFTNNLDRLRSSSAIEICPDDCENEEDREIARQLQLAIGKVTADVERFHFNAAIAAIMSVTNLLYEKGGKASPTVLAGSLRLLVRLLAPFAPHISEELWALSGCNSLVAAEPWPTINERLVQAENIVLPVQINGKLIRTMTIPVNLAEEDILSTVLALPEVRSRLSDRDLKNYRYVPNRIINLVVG

[8] = test system: CC(C)C[C@H](N)C(=O)O; test: purified protein, by the assay type; details: substrate, 28 °C, pH 7.4
[9] = molecular target: T4, AgnB2 Triple + Q413R mutant (Agrobacterium radiobacter, UniProt B9JQP8, A102N/Q413R/Q573M/T42P); test: Aminoacylation assay, AgnB2 Triple + Q413R mutant; format: biochemical, Agrobacterium radiobacter K84; details: fixed ATP concentration (0.675 mM), saturating leucine
T4 sequence (B9JQP8 1-814 T42P/A102N/Q573M/Q413R): T3 sequence
Description: (§3) Aminoacylation activities of AgnB2, LeuRSAt and their mutants were measured in 50 mM HEPES buffer (pH 7.4) containing 20 mM KCl, 25 mM MgCl2, 25 mM β-ME, 4 mM ATP, 500 μM [3,4,5-^3H] L-leucine (20 μCi/mmole), 5 μg/ml inorganic pyrophosphatase, 1 μM BSA, 10 μM of active in vitro transcribed tRNA^Leu and enzymes in the range of 2–8 nM. Reactions were pre-incubated with or without substrate and/or inhibitor and then carried out at 28 °C (37 °C-LeuRSHp). Aliquots of the reaction (5–10 μl) were quenched on 3 mM filter pads (Whatman, GE Healthcare) presoaked with 5% trichloroacetic acid (TCA). The pads were washed thrice with 5% TCA and 90% ethanol at 4 °C and then dried. The amount of Leu-tRNA^Leu was then quantified using scintillation counting. Each reaction was performed in triplicate and analyzed using Kaleidagraph (for Km and kcat determinations) or GraphPad Prism software (for IC50 determination).

[10] = test system: LeuRSAt Triad (P45T/N105A/M633Q); test: Isothermal titration calorimetry, LeuRSAt Triad mutant; format: binding, A. tumefaciens; details: ITC
Description: as §1

[11] = molecular target: T5, AgnB2 Triple mutant + LS domain (Agrobacterium radiobacter, UniProt B9JQP8, A102N/DEL566-572/Q573M/T42P, form not given); test: Isothermal titration calorimetry, AgnB2 Triple mutant + LS domain; format: binding, Agrobacterium radiobacter K84; details: ITC, enzyme alone
T5 sequence (B9JQP8 1-814 T42P/A102N/Q573M/DEL566-572): T3 sequence
T5 sequence (Q8UBV2 585-631 partner): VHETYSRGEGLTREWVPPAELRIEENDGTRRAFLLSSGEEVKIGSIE
Excerpt: The LS domain of LeuRSAt (141 bp) was inserted into AgnB2 (replacing the region between amino acid no. 566 and 572 with the LS domain)[37] To obtain this, the forward PCR primer was designed to contain the region of AgnB2 (∼25 bp) preceding the LS domain insertion followed by the first 25 bases of the LS domain (5′–3′). Similarly, the reverse primer was designed so as to include the last 25 bp of the LS domain (3′–5′) and the gene sequence of AgnB2 after the LS domain insertion. An extension reaction was carried out to obtain mega primers, (forward and reverse) encoding the entire LS domain (of LeuRSAt) flanked by the sequence of AgnB2 on both sides using the protocol by Wang and Malcolm[42]. DpnI digestion was then carried out to remove the wt template. The resultant mega primer was gel purified using the Qiaex II gel extraction kit (Qiagen) to be used in the second step. […]
as §1, with “The titrations were carried out in triplicate at 28 °C.” left out

[12] = test system: agrobacterial IleRS; details: cited from earlier work
[13] = test system: LeuRSAt Triad (P45T/N105A/M633Q); test: Aminoacylation assay, LeuRSAt Triad mutant; format: biochemical, A. tumefaciens; details: TM84 concentrations as high as 500 nM, 4 nM enzyme, 0.63 mM ATP
[14] = test system: AgnB2 Triple (T42P/A102N/Q573M); test: Aminoacylation assay, AgnB2 Triple mutant; format: biochemical, Agrobacterium radiobacter K84; details: 4 nM enzyme, 0.63 mM ATP, 28 °C, pH 7.4
[15] = test system: AgnB2 Triple (T42P/A102N/Q573M); test: Isothermal titration calorimetry, AgnB2 Triple mutant; format: binding, Agrobacterium radiobacter K84; details: ITC
Description: as §1

[16] = molecular target: T6, LeuRS H. pylori (LeuRSHp) (Helicobacter pylori, UniProt P56457); test: Aminoacylation assay, LeuRSHp; format: biochemical; details: aminoacylation of agrobacterium tRNALeu, 37 °C, 4 nM enzyme
T6 construct: made in house
Description: as §3

[17] = test system: AgnB2 Triple Q413R; test: Isothermal titration calorimetry, AgnB2 Triple Q413R mutant; format: binding, Agrobacterium radiobacter K84; details: ITC
Description: as §1

[18] = test system: LeuRSAt (leucyl-tRNA synthetase); test: Aminoacylation assay, wt LeuRSAt; format: biochemical, A. tumefaciens; details: 20 nM TM84, 4 nM enzyme, 0.63 mM ATP, 28 °C, pH 7.4
Description: as §3, with “Aminoacylation activities of AgnB2, LeuRSAt and their mutants were measured in 50 mM HEPES buffer (pH 7.4) containing 20 mM KCl, 25 mM MgCl2, 25 mM β-ME, 4 mM ATP, 500 μM [3,4,5-^3H]” left out

[19] = test system: CC(C)C[C@H](N)C(=O)O; test: ATP/PPi exchange assay (amino acid activation), LeuRSAt; format: biochemical, A. tumefaciens; details: other: ATP-PPi exchange, substrate, 28 °C, pH 7.4
Description: as §2

[20] = aminoacylation, substrate, 28 °C, pH 7.4

Compound: CC(C)CC(N)C(=O)NS(=O)(=O)OCC1OC(n2cnc3c(N)ncnc32)C(O)C1O (stereo not drawn) [Leu-AMS, reference compound]
- Kd [1]: 1.6 nM
- Kd ([2]; ligand binding to AgnB2 alone, pH 7.4, read-out: Kd): 4.4 nM
- inhibition of overall aminoacylation reaction ([3]; 20 nM Leu-AMS, 2 nM wt AgnB2, 28 °C, pH 7.4): potently inhibited
- inhibition of Leu-AMP formation ([4]; 25 nM Leu-AMS, 1 nM enzyme): potently inhibits
- inhibition of amino acid activation (Leu-AMP formation) ([5]; 25 nM Leu-AMS, 1 nM enzyme): potently inhibits

Compound: Nc1ncnc2c1ncn2[C@@H]1O[C@H](COP(=O)(O)OP(=O)(O)OP(=O)(O)O)[C@@H](O)[C@H]1O [ATP]
- Km [6]: 396 ± 83 µM
- kcat [6]: 0.33 ± 0.02 s⁻¹
- Km [3, 20]: 95.4 ± 18.3 µM
- kcat [3, 20]: 0.43 ± 0.02 s⁻¹
- Km ([4]; ATP-PPi exchange, substrate): 357 ± 22 µM
- kcat ([4]; ATP-PPi exchange, substrate): 87 ± 1.5 s⁻¹
- Km ([5]; ATP-PPi exchange, substrate): 1050 ± 140 µM
- kcat ([5]; ATP-PPi exchange, substrate): 67 ± 8.9 s⁻¹

Compound: tRNALeu (agrobacterial)
- Kd [7]: 310 nM

Compound: wt AgnB2 (LeuRS) (Rhizobium rhizogenes K84)
- Km ([8]; other: ATP-PPi exchange): 12 ± 2 µM
- kcat ([8]; other: ATP-PPi exchange): 73 ± 3.6 s⁻¹
- Km ([8]; other: aminoacylation): 28.7 ± 7.3 µM
- kcat ([8]; other: aminoacylation): 0.35 ± 0.03 s⁻¹

Compound: CC(C)C[C@H](N)C(=O)O [Leucine]
- Km [6]: 38 ± 3.2 µM
- kcat [6]: 0.38 ± 0.01 s⁻¹

Compound: CC(C)[C@@H](O)[C@H](O)C(=O)NP(=O)(O)OC[C@@H]1C[C@H](O)[C@H](n2cnc3c(N)ncnc32)O1 [TM84]
- IC50 [9]: 2900 nM
- decrease in TM84 binding affinity compared with LeuRSAt, enzyme alone ([10]; LeuRSAt Triad alone): 10 fold
- decrease in TM84 binding affinity compared with LeuRSAt, enzyme pre-incubated with tRNALeu ([10]; LeuRSAt Triad pre-incubated with tRNALeu): 28 fold
- Ki ([6]; wt LeuRSAt, read-out: Ki app): 0.3 ± 0.1 nM
- increase in TM84 binding alone compared with wt AgnB2 [11]: fourfold
- inhibition of agrobacterial IleRS [12]: does not inhibit
- effect on aminoacylation activity [13]: almost no effect
- activity remaining [14]: 13%
- effect of mutations on TM84 binding, enzyme alone ([15]; AgnB2 Triple alone vs wt AgnB2): no significant effect
- increase in binding of TM84 to the AgnB2·tRNALeu complex ([15]; AgnB2 Triple with tRNALeu vs wt AgnB2): 3.5 fold
- IC50 [16]: 34 ± 1.14 nM
- binding of TM84 to enzyme·tRNALeu complex tighter than wt AgnB2 ([17]; AgnB2 Triple Q413R·tRNALeu complex): sixfold
- binding of TM84 to enzyme alone tighter than wt enzyme ([17]; enzyme alone): 1.3 fold
- reduction in AgnB2-binding affinity compared with LeuRSAt ([2]; binary binding, AgnB2 vs LeuRSAt (ref 23)): 6.9 fold
- decrease in affinity, AgnB2·tRNA·TM84 compared with LeuRSAt·tRNA·TM84 complex ([2]; ternary complex): ~330 fold
- Kd ([2]; Kd, ligand binding to AgnB2 alone, pH 7.4): 1050 nM
- Kd ([2]; Kd, TM84 binding to AgnB2 with pre-bound tRNA, AgnB2 with pre-bound tRNA): 332 nM
- activity remaining [18]: 4%
- IC50 [3]: 61300 nM
- change in aminoacylation activity ([3]; 4 nM enzyme, 0.63 mM ATP, 28 °C, pH 7.4): No change
- mode of inhibition with regards to ATP and leucine ([3]; aminoacylation, Lineweaver-Burk): weak competitive inhibitor
- Ki ([3]; apparent TM84 Ki, varying leucine, aminoacylation, fixed ATP 1 mM, 28 °C, pH 7.4): 1380 ± 280 nM
- Ki ([3]; apparent TM84 inhibition constant (Ki), varying ATP, aminoacylation, fixed leucine, AgnB2·tRNALeu pre-incubated, 28 °C, pH 7.4): 4720 ± 750 nM

Compound: LeuRSAt (Agrobacterium fabrum str. C58)
- Km [19]: 9.7 ± 0.7 µM
- kcat [19]: 85 ± 1.6 s⁻¹

Reference: article PMC5059758, “Structural characterization of antibiotic self-immunity tRNA synthetase in plant tumour biocontrol agent” (Nature Communications, 2016)
